Measured values from ChEMBL document CHEMBL4765339, “Design, synthesis, and biological evaluation of 4-substituted-3,4-dihydrobenzo[h]quinoline-2,5,6(1H)-triones as NQO1-directed antitumor agents” (Eur J Med Chem, 2020).
Active and inactive are the calls of the source. The rule behind the calls is not given here.

Columns and labels:
[1] = molecular target: NAD(P)H dehydrogenase [quinone] 1 (Homo sapiens) (UniProt P15559); test: Substrate activity at recombinant human C-terminal His-tagged NQO1 (1 to 274 residues) expressed in Escherichia coli assessed as enzyme activity by measuring oxidation of NADPH incubated for 5 mins measured per micromol of enzyme every 5 sec for 1 mins by UV-visible spectrophotometry
[2] = tested on: HepG2; test: Induction of apoptosis in human HepG2 cells assessed as late apoptotic cells at 1.1 uM incubated for 24 hrs by annexinV-FITC and PI staining based flow cytometry analysis (reference value: 2.27 %); type: functional
[3] = tested on: HepG2; test: Induction of ROS generation in human HepG2 cells at 5 uM incubated for 5 hrs in presence of dicoumarol by DCFH-DA staining based flow cytometry analysis; type: functional, cell-based
[4] = tested on: HepG2; test: Induction of apoptosis in human HepG2 cells assessed as viable cells at 2.2 uM incubated for 24 hrs by annexinV-FITC and PI staining based flow cytometry analysis (reference value: 94.73 %); type: functional; details: read-out: Activity
[5] = tested on: HepG2; test: Induction of apoptosis in human HepG2 cells assessed as late apoptotic cells at 4.4 uM incubated for 24 hrs by annexinV-FITC and PI staining based flow cytometry analysis (reference value: 2.27 %); type: functional
[6] = Selectivity index, ratio of GI50 for human HepG2 cells pretreated for 1 hr with ROS scavenger, N-acetyl cysteine followed by incubation with compound for 48 hrs to GI50 for human HepG2 cells measured after 48 hrs by MTT assay; type: functional
[7] = tested on: HepG2; test: Induction of apoptosis in human HepG2 cells incubated for 24 hrs by annexinV-FITC and PI staining based flow cytometry analysis; type: functional, cell-based; details: dose 1.1-4.4 µM
[8] = tested on: HepG2; test: Induction of apoptosis in human HepG2 cells assessed as viable cells at 1.1 uM incubated for 24 hrs by annexinV-FITC and PI staining based flow cytometry analysis (reference value: 94.73 %); type: functional; details: read-out: Activity
[9] = molecular target: NAD(P)H dehydrogenase [quinone] 1 (Homo sapiens) (UniProt P15559); test: Substrate activity at recombinant human C-terminal His-tagged NQO1 (1 to 274 residues) expressed in Escherichia coli assessed as enzyme activity by measuring oxidation of NADPH incubated for 5 mins measured every 5 sec for 1 mins by UV-visible spectrophotometry relative to beta-lapachone
[10] = tested on: HepG2; test: Induction of mitochondrial membrane potential loss in human HepG2 cells at 4.4 uM incubated for 48 hrs by JC-1 staining based flow cytometry analysis (reference value: 2.06 %); type: functional
[11] = tested on: HepG2; test: Induction of apoptosis in human HepG2 cells assessed as viable cells at 4.4 uM incubated for 24 hrs by annexinV-FITC and PI staining based flow cytometry analysis (reference value: 94.73 %); type: functional; details: read-out: Activity
[12] = tested on: HepG2; test: Induction of ROS generation in human HepG2 cells at 5 uM by DCFH-DA staining based flow cytometry analysis; type: functional, cell-based; details: time 3-5 hrs, TDE = time-dependent effect
[13] = tested on: HepG2; test: Antitumor activity against human HepG2 cells xenografted in athymic nude mouse assessed as inhibition of tumor growth at 20 mg/kg, iv administered once every 2 days for 19 days by caliper analysis relative to control; type: functional; details: 456 h, time 19 day
[14] = tested on: A549; test: Cytotoxicity against human A549 cells assessed as reduction in cell growth pretreated for 1 hr with ROS scavenger, N-acetyl cysteine followed by incubation with compound for 48 hrs by MTT assay; type: functional
[15] = tested on: HepG2; test: Antitumor activity against human HepG2 cells xenografted in athymic nude mouse assessed as inhibition of tumor growth administered intravenously once every 2 days for 19 days by caliper analysis; type: functional, cell-based; details: dose 10-20 mg/kg, time 19.0 day
[16] = tested on: HepG2; test: Induction of apoptosis in human HepG2 cells assessed as early apoptotic cells at 1.1 uM incubated for 24 hrs by annexinV-FITC and PI staining based flow cytometry analysis (reference value: 2.65 %); type: functional
[17] = tested on: HepG2; test: Antitumor activity against human HepG2 cells xenografted in athymic nude mouse assessed as inhibition of tumor growth at 10 mg/kg, iv administered once every 2 days for 19 days by caliper analysis relative to control; type: functional; details: 456 h, time 19 day
[18] = tested on: HepG2; test: Induction of cell cycle arrest in human HepG2 cells assessed as accumulation at S/G2 phase at 3 uM incubated for 24 hrs by PI staining based flow cytometry analysis (reference value: 35.2 %); type: functional
[19] = tested on: HepG2; test: Induction of apoptosis in human HepG2 cells assessed as necrotic cells at 4.4 uM incubated for 24 hrs by annexinV-FITC and PI staining based flow cytometry analysis (reference value: 0.35 %); type: functional
[20] = tested on: HepG2; test: Induction of apoptosis in human HepG2 cells assessed as necrotic cells at 2.2 uM incubated for 24 hrs in presence of dicoumarol by annexinV-FITC and PI staining based flow cytometry analysis (reference value: 0.35 %); type: functional
[21] = tested on: HepG2; test: Induction of apoptosis in human HepG2 cells assessed as early apoptotic cells at 2.2 uM incubated for 24 hrs in presence of dicoumarol by annexinV-FITC and PI staining based flow cytometry analysis (reference value: 2.65 %); type: functional
[22] = Toxicity in athymic nude mouse xenografted with human HepG2 cells assessed as effect on body weight at 10 to 20 mg/kg, iv administered once every 2 days for 19 days; type: organism-based; details: in vivo, 456 h, dose 10-20 mg/kg, time 19 day
[23] = tested on: MCF7; test: Cytotoxicity against NQO1-rich human MCF7 cells assessed as reduction in cell growth incubated for 48 hrs by MTT assay; type: functional
[24] = tested on: HepG2; test: Induction of apoptosis in human HepG2 cells assessed as necrotic cells at 1.1 uM incubated for 24 hrs by annexinV-FITC and PI staining based flow cytometry analysis (reference value: 0.35 %); type: functional
[25] = molecular target: NAD(P)H dehydrogenase [quinone] 1 (Homo sapiens) (UniProt P15559); test: Activation of recombinant human C-terminal His-tagged NQO1 (1 to 274 residues) expressed in Escherichia coli assessed as cytochrome c reduction using menadione as substrate in presence of NADPH by spectrophotometry; details: filed as activator, dose 12.5-50 µM
[26] = Selectivity index, ratio of GI50 for human HepG2 cells pretreated for 1 hr with NQO1 inhibitor, dicoumarol followed by incubation with compound for 48 hrs to GI50 for human HepG2 cells measured after 48 hrs by MTT assay; type: functional
[27] = tested on: HepG2; test: Induction of apoptosis in human HepG2 cells assessed as necrotic cells at 2.2 uM incubated for 24 hrs by annexinV-FITC and PI staining based flow cytometry analysis (reference value: 0.35 %); type: functional
[28] = Cytotoxicity against human L02 cells assessed as reduction in cell growth incubated for 48 hrs by MTT assay; type: cell-based
[29] = tested on: HepG2; test: Induction of apoptosis in human HepG2 cells assessed as early apoptotic cells at 4.4 uM incubated for 24 hrs by annexinV-FITC and PI staining based flow cytometry analysis (reference value: 2.65 %); type: functional
[30] = Selectivity index, ratio of GI50 for human A549 cells pretreated for 1 hr with NQO1 inhibitor, dicoumarol followed by incubation with compound for 48 hrs to GI50 for human A549 cells measured after 48 hrs by MTT assay; type: functional
[31] = tested on: HepG2; test: Cytotoxicity against human HepG2 cells assessed as reduction in cell growth pretreated for 1 hr with ROS scavenger, N-acetyl cysteine followed by incubation with compound for 48 hrs by MTT assay; type: functional
[32] = tested on: A549; test: Cytotoxicity against human A549 cells assessed as reduction in cell growth incubated for 48 hrs by MTT assay; type: functional

Structure (SMILES): COc1ccc(C2CC(=O)NC3=C2C(=O)C(=O)c2ccccc23)cc1O (configuration not stated)
- Activity [1]: 2770 µmol/min
- Activity [2]: 8.9%
- Activity [3]: inactive
- viability at 2.2 µM [4]: 76%
- Activity [5]: 17.46%
- RatioGI50 [6]: 2
- Activity [7]: Dose-dependent effect
- viability at 1.1 µM [8]: 82.4%
- fold change (FC) [9]: > 2
- Activity [10]: 18.12%
- viability at 4.4 µM [11]: 66.5%
- Activity [12]: Tde
- inhibition in vivo at 20 mg/kg [13]: 50.3%
- GI50 [14]: 5.48 µM
- TGI [15]: Dose-dependent effect
- Activity [16]: 7.92%
- inhibition in vivo at 10 mg/kg [17]: 27.2%
- Activity [18]: 41.4%
- Activity [19]: 1.07%
- Activity [20]: 0.69%
- Activity [21]: 8.28%
- Activity [22]: Non-Toxic
- GI50 [23]: 3.06 µM
- Activity [24]: 0.77%
- Activity [25]: Dose-dependent effect
- RatioGI50 [26]: 2
- Activity [27]: 0.93%
- GI50 at 48 h [28]: 4.36 µM
- Activity [29]: 14.96%
- RatioGI50 [30]: 2
- GI50 [31]: 5.65 µM
- GI50 [32]: 3.13 µM
